Data reported in patent US10690666B2, “Methods and compositions for modulating TH-GM cell function” (National University of Singapore, priority 2014, dated 2020).

Legend:
[1] = target: T1, STAT1 (Mus musculus, UniProt P42225); assay: IFN-γ-induced STAT1 activation (Tyr701 phosphorylation) in CD4+ T cells, immunoblotting; assay type: cell-based; conditions: 50 or 100 μM; IFN-γ 30 min
T1 construct: endogenous in cells; host or cells: primary mouse CD4+ T cells (spleen and lymph nodes)
T1 sequence (P42225 1-749): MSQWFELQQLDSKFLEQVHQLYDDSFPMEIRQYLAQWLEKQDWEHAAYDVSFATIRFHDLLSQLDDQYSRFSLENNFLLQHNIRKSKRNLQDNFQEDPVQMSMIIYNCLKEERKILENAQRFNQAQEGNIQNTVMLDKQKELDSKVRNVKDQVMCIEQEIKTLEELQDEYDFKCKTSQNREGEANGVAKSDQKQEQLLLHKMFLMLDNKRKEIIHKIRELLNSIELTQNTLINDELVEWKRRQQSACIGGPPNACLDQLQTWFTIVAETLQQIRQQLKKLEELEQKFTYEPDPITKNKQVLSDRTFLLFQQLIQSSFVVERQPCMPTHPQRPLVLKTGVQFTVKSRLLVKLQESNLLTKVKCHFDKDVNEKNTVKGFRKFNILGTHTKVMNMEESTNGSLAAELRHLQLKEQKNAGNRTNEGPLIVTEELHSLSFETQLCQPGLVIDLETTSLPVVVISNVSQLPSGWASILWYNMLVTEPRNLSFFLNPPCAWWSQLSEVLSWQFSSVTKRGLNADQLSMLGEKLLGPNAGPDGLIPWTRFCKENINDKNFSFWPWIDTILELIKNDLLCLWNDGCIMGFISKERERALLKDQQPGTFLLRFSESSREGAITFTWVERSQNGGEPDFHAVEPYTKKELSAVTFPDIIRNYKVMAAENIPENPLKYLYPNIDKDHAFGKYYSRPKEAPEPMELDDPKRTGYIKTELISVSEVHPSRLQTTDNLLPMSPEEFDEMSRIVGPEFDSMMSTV
Experimental: (§1) FIGS. […] depict inhibition of STAT5 activation suppresses TH-GM cell differentiation in vitro. CD4^+ T cells were pre-incubated with STAT5 inhibitor (Calbiochem) (FIG. 22A) or JAK3 inhibitor (FIG. 22B) at indicated concentrations or vehicle (−) for 1 h before stimulation with IL-7 for 30 min. Activation (Tyr694 phosphorylation) of STAT5 was determined by immunoblotting. CD4^+ T cells were pre-incubated with STAT5 inhibitor at indicated concentrations or vehicle (−) for 1 h before stimulation with IL-6 for 30 min. Activation (Tyr705 phosphorylation) of STAT3 was determined by immunoblotting (FIG. 22C). In FIG. 22D, CD4^+ T cells were pre-incubated with STAT5 inhibitor at indicated concentrations or vehicle (−) for 1 h before stimulation with IFN-γ for 30 min. Activation (Tyr701 phosphorylation) of STAT1 was determined by immunoblotting. In FIG. 22E, naïve CD4^+ T cells were isolated and activated under neutral condition or TH-GM cell-favoring condition with the addition of different concentrations of STAT5 inhibitor for 3 days. GM-CSF and IFN-γ expression was analyzed by intracellular cytokine staining and flow cytometry.
(§2) The effect of disrupting STAT5 activation by chemical inhibitor was examined to explore possible methods of treating autoimmune neuroinflammation. The phosphorylation on the key tyrosine residue in SH2 domain is crucial for STAT5 activation and function. […]

[2] = target: T2, STAT3 (Mus musculus, UniProt P42227); assay: IL-6-induced STAT3 activation (Tyr705 phosphorylation) in CD4+ T cells, immunoblotting; assay type: cell-based; conditions: 50 or 100 μM; IL-6 30 min
T2 construct: endogenous in cells; host or cells: primary mouse CD4+ T cells (spleen and lymph nodes)
T2 sequence (P42227 whole entry): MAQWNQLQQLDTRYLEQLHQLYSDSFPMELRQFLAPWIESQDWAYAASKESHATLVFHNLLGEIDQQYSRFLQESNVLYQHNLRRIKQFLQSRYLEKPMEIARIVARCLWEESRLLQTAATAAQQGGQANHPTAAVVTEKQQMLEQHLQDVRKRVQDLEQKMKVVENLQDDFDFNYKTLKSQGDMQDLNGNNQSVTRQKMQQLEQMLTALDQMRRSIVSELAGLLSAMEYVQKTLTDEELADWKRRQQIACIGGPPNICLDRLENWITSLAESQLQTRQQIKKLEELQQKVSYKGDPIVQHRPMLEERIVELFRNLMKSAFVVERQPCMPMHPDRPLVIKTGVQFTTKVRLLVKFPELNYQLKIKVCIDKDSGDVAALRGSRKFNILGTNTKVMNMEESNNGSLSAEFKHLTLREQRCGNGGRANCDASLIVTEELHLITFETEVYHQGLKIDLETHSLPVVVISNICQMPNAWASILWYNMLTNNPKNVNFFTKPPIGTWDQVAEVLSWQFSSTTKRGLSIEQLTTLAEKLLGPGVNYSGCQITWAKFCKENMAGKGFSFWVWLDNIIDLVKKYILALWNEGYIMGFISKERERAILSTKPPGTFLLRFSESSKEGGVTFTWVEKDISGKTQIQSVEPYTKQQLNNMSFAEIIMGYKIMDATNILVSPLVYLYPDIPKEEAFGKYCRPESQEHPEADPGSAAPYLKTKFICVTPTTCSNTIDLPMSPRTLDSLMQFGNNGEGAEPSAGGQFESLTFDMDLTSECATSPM
Experimental: as §1, §2

[3] = test system: naïve CD4+ T cells; assay: In vitro TH17 differentiation; assay type: cell-based, mouse; conditions: data not shown
Experimental: (§3) CD4^+ T cells were obtained from spleens and lymph nodes by positive selection and magnetic separation (Miltenyi Biotech), followed by purification of naïve CD4^+ T cell population (CD4^+CD25^−CD62L^hiCD44^lo) sorted with FACS Aria. Naïve CD4^+ T cells were stimulated with plate-bound anti-CD3 (3 μg/ml; BD Pharmingen) and anti-CD28 (1 μg/ml; BD Pharmingen) in presence of different combinations of neutralizing antibodies and cytokines for 3˜4 days: for neutral conditions, no addition of any cytokine or neutralizing antibody; for TH1 conditions, IL-12 (10 ng/ml), and anti-IL-4 (10 μg/ml, BD Pharmingen); for TH17 conditions, hTGF-β (3 ng/ml), IL-6 (20 ng/ml), anti-IFN-γ (10 μg/ml, eBioscience), and anti-IL-4 (10 μg/ml); for an alternative TH17 conditions, IL-6 (20 ng/ml), IL-23 (10 ng/ml), IL-1β (10 ng/ml), anti-IFN-γ (10 μg/ml), and anti-IL-4 (10 μg/ml). […] Cells were acquired on the LSR II (BD Biosciences) and analyzed with FlowJo software (Tree Star).
Stat5 deletion (Cd4-cre; Stat5^f/−) mice was reported to develop peripheral lymphopenia, with a reduction of both CD4^+ and CD8^+ T cells (Yao et al., 2006). […] Furthermore, increased frequencies of IL-17^+ and IFN-γ^+ cells were detected among CD4^+ T cells in spleens of Stat5^−/− mice (FIG. 4C), which further support the idea that the resistance to EAE in Stat5^−/− mice is likely independent of TH1 and TH17 generation. […]

[4] = test system: STAT5; conditions: Muller et al., 2008; cited from earlier work
[5] = test system: naïve CD4+ T cells; assay: In vitro TH1 differentiation; assay type: cell-based, mouse; conditions: data not shown
Experimental: as §3, with “μg/ml). For GM-CSF-expressing cell differentiation, naïve CD4^+ T cells were stimulated with plate-bound anti-CD3 (2 μg/ml) and soluble anti-D28 (1 μg/ml) with the addition of IL-7 and/or anti-IFN-γ (10 μg/ml) as indicated. All cytokines were obtained from R&D Systems.” for “μg/ml).”, “Star). […]” for “Star).”

[6] = test system: EAE mice; assay: EAE (MOG35-55/CFA) model; assay type: in vivo
Experimental: (FIG. 23A) Clinical EAE scores of wild-type control mice (n=5) or administrated with STAT5 inhibitor (Calbiochem). Arrow indicates the treatment points. (FIG. 23B) Histology of spinal cords at day 18 of EAE mice receiving different treatments. (FIG. 23C) Intracellular staining and flow cytometry of CNS-infiltrating CD4^+ T cells at peak of disease. (FIG. 23D) Whole CNS was harvest for RNA extraction. GM-CSF mRNA expression was analyzed by RT-PCR. Data represent two independent experiments. *p<0.05.
EAE induction procedures were modified from previous report^3. For active EAE induction, mice were immunized in two sites on the hind flanks with 300 μg MOG35-55 in 100 μl CFA containing 5 mg/ml heat-killed M. tuberculosis strain H37Ra (Difco) at day 0 and day 7. Pertussis toxin (List Bio Lab) was administrated intraperitoneally at the dosage of 500 ng per mouse at day 1 and day 8. For single MOG35-55/CFA immunization, the similar procedure was performed at day 0 and day 1 only. In an alternative active EAE induction, LPS (600 μg/ml in IFA, O111:B4 from Sigma) was used as adjuvant. […] Clinical symptoms were scored as follows: 0, no clinical sign; 1, loss of tail tone; 2, wobbly gait; 3, hind limb paralysis; 4, hind and fore limb paralysis; 5, death. […] For analysis of CNS-infiltrating cells, both spinal cord and brain were collected and minced from perfused mice, and mononuclear cells were isolated by gradient centrifuge with Percoll (GE Healthcare).
To explore the therapeutic effect of targeting STAT5 activation in EAE disease, the commercial STAT5 inhibitor was administered to wild-type mice intraperitoneally every other day after disease onset. Development of paralysis was assessed by daily assignment of clinical scores.

[7] = test system: STAT5; assay: IL-7-induced STAT5 activation (Tyr694 phosphorylation) in CD4+ T cells, immunoblotting; assay type: cell-based, mouse; conditions: pre-incubated 1 h, IL-7 30 min
Experimental: as §1, §2

[8] = test system: naïve CD4+ T cells; assay: In vitro TH-GM (GM-CSF-expressing TH) differentiation from naïve CD4+ T cells; assay type: cell-based, mouse; conditions: TH-GM cell-favoring condition, inhibitor 3 days
Experimental: Naïve CD4^+ T cells were primed with plate-bound anti-CD3 and soluble anti-CD28 in the presence of a combination of various cytokines and neutralizing antibodies as indicated. GM-CSF, IL-17 and IFN-γ expression was analyzed by intracellular staining (FIG. 13A) or RT-PCR (FIG. 13B)
GM-CSF and IFN-γ expression in naive CD4^+ T cells activated for 72 h with anti-CD3 alone or plus anti-CD28 (FIG. 14A). In FIG. 14B, sorted naïve CD4^+ T cells were stimulated with anti-CD3 and anti-CD28 in the presence of neutralizing antibodies against IL-12 and IFN-γ without or with the addition of IL-6. The frequencies of GM-CSF^+ and IL-17^+ cells were measured by intracellular staining (FIG. 14B). In FIG. 14C, naïve CD4^+ T cells from Stat3^+/+ and Stat3^−/− mice were polarized under conditions as indicated for 72 h. The frequencies of GM-CSF^+ and IL-17^+ cells were analyzed. In FIG. 14D, naïve CD4^+ T cells were activated with anti-CD3 and anti-CD28 in the presence of IL-2 or anti-IL-2. The frequencies of GM-CSF^+, IL-17^+ and IFN-γ^+ cells were analyzed.
Naïve CD4^+ T cells were primed with plate-bound anti-CD3 and soluble anti-CD28 in the presence of various concentration of IL-7 as indicated. GM-CSF and IFN-γ expression was analyzed by intracellular staining (FIG. 15A) or ELISA (FIG. 15B). In FIGS. 15C and 15D, Stat5^+/+ and Stat5^−/− naïve CD4^+ T cells were activated with anti-CD3 and anti-CD28 in the presence IL-7 for 3 days. GM-CSF, IL-17 and IFN-γ expression was analyzed by intracellular cytokine staining (FIG. 15C). GM-CSF secretion was measured by ELISA (FIG. 15D).

With `O=C(N/N=C/c1coc2ccccc2c1=O)c1cccnc1` [STAT5 inhibitor] the “inhibitory effect on STAT1 activation” value [1] was “minimal inhibitory effect”, the “inhibitory effect on STAT3 activation” value [2] was “minimal inhibitory effect” and the TH17 differentiation [3] was “not suppressed”. The “disruption of tyrosine phosphorylation and DNA binding of STAT5” value [4] was “selectively disrupt tyrosine phosphorylation and DNA binding of STAT5”, the TH1 differentiation [5] was “Reduced TH1 differentiation” and the “GM-CSF production in CNS-infiltrating CD4+ T cells” value ([6]; inhibitor-treated EAE mice, peak of disease) was “reduced GM-CSF production”. The “EAE severity (clinical scores)” value ([6]; wild-type mice, intraperitoneally every other day after disease onset) was “ameliorated EAE severity”, the “immune cell infiltration in the CNS” value ([6]; wild-type mice, intraperitoneally every other day after disease onset, day 18) was “reduced immune cell infiltration in the CNS” and the “inhibitory effect on STAT5 activation upon IL-7 stimulation” value ([7]; 50 μM) was “about 50%”. For the same molecule, the “inhibitory effect on STAT5 activation upon IL-7 stimulation” value ([7]; FIG. 22A, 22B) was “low affinity and thus required a high concentration to fully block STAT5 activation” and the TH-GM differentiation [8] was “suppressed TH-GM differentiation in a dosage-dependent manner”.
